Measured values taken from article PMC9225045, “Purification and Characterization of a Novel α-L-Rhamnosidase from Papiliotrema laurentii ZJU-L07 and Its Application in Production of Icariin from Epimedin C” (Journal of Fungi, 2022).
Where two headings read alike, the source gives them in different places.

Legend:
[1] = system: T1, α-L-rhamnosidase from P. laurentii ZJU-L07; settings: 1.0-5.0 mM substrate; pH and temperature of the kinetic assay not stated separately
T1 construct: gene EC 3.2.1.40
Text: Lineweaver-Burk; HPLC for epimedin C and icariin on α-L-rhamnosidase from P. laurentii ZJU-L07 | When epimedin C was used as a nature substrate to determine the kinetic parameters

[2] = system: T2, α-L-rhamnosidase from P. laurentii ZJU-L07; test: p-nitrophenol release at […] nm, Lineweaver-Burk; assay type: biochemical, Papiliotrema laurentii; settings: pH 7.0 citric acid-Na2HPO4, 55 °C (standard assay); 2.0-10.0 mM substrate
T2 construct: gene EC 3.2.1.40; native intracellular enzyme purified from cells of the soil isolate (strain mutagenized by gamma rays and nitrosoguanidine); 100 kDa by SDS-PAGE

| Km [1] [µM] | SMILES | Km [2] [µM] |
| --- | --- | --- |
| 3280 | COc1ccc(-c2oc3c(CC=C(C)C)c(O[C@@H]4O[C@H](CO)[C@@H](O)[C@H](O)[C@H]4O)cc(O)c3c(=O)c2O[C@@H]2O[C@@H](C)[C@H](O)[C@@H](O)[C@H]2O[C@@H]2O[C@@H](C)[C@H](O)[C@@H](O)[C@H]2O)cc1 [epimedin C] |  |
|  | C[C@@H]1O[C@@H](Oc2ccc([N+](=O)[O-])cc2)[C@H](O)[C@H](O)[C@H]1O [p-nitrophenyl-α-L-rhamnopyranoside] | 1380 |
